One experiment deals with Wistar male rats. Kind of experiment: Gastric acid secretion in anesthetized rat by intravenous injection of hNPW23 (stomach perfusion, NaOH titration). It counts as in vivo. Particulars: 80 μM in saline, 1 ml/h for 30 minutes through the femoral vein; mean±SE, 8 rats; P 0.01 or less vs control. On the procedure: After Wistar male rats (Nippon Charles River, weighing 320-360 g) were fasted for 16 hours with water given ad libitum, the animal was injected intraperitoneally with ethyl carbamate (Wako Pure Chemical) (1.0 g/ml/kg) and firmly secured to the operating table under anesthesia to perform laparotomy. Stomach catheter (Medtop X2-50, 3.5 mm in outer diameter and […] in inner diameter) was inserted into the stomach (2 cm) through an incision in the duodenum. After ligature at the pyloric canal, the right femoral vein was isolated to perform venous cannulation. The stomach was irrigated with distilled water (Otsuka Pharmaceutical Co., Ltd.) warmed at 37° C. and allowed to stand for about an hour. hNPW23 was dissolved in saline (Otsuka Pharmaceutical Co., Ltd.) to become 80 μM. The control group was given saline. […] Gastric acid output was determined as follows. […] After 30 μl of Bromthymol Blue indicator solution (BTB, Wako Pure Chemical) was added to each gastric juice collected, the mixture was titrated with 0.1N NaOH solution and the consumed amount of NaOH required to reach the equivalent point (the amount consumed) was determined to calculate the gastric acid output. The gastric acid output before administration of hNPW23 was measured and T-assay was conducted on a percentage (%) of changes in gastric acid outputs before and after administration. […]

Experiment [1] concerns pylorus ligated rats. Kind of experiment: Gastric fluid volume, pH, gastric acidity and acid output in pylorus ligated rats. It counts as in vivo, rat. Particulars: 2 mg/kg intraperitoneally; 3 hours after pylorus ligature; mean ± SE, 8 rats. How it is done: After Wistar male rats (340-360 g) were fasted for 16 hours with water given ad libitum, the animal was exposed at laparotomy under ether anesthesia and submitted to the pylorus ligature assay to close the abdomen. After hNPW23 was dissolved in saline (2 mg/ml), the solution was intraperitoneally injected (2 mg/kg). The control group was given saline. Test was performed with 8 rats in each group. Three hours after the pylorus ligature, the rat's abdomen was opened under anesthesia with Nembutal (40 mg/kg, Dainippon Pharmaceutical). After ligation of the cardia, the stomach was removed. Gastric contents were collected and centrifuged (2500 rpm×10 min.). Using the supernatant, gastric fluid volume (ml), pH intragastric pH, gastric acidity (mEq/l) and total acid output (μEq/kg/h) were measured.
To 1 ml of gastric juice, 30 μl of BTB (Wako Pure Chemical) solution was added and […] NaOH solution was dropwise added to the mixture. The consumed amount of NaOH required to reach the equivalent point (pH 7.0) was measured to calculate the gastric acidity and total acid output.
The pH of gastric juice was measured using Twin pH meter B-212 (Horiba, Ltd.).
The respective measurements values were calculated according to the equation below and T-assay was conducted.
Gastric acidity (mEq/l)=0.2N NaOH×consumed amount (μl)/gastric juice (1000 μl)
Total acid output (μEq/kg/h)=gastric acidity x gastric fluid volume/weight/time

Experiment [2] deals with pylorus ligated rats. Description: Amount of gastrin secretion (blood gastrin level, RIA) in pylorus ligated rats. It counts as in vivo, rat. The settings on record: 2 mg/kg (2000 μg/kg group) intraperitoneally; blood 3 hours after pylorus ligature; vs saline group, 8 rats. How it is done: After Wistar male rats (340-360 g) were fasted for 16 hours with water given ad libitum as in EXAMPLE 2 above, the animal was exposed at laparotomy under ether anesthesia and submitted to the pylorus ligature assay to close the abdomen. After hNPW23 was dissolved in saline (2 mg/ml), the solution was intraperitoneally injected (2 mg/kg). The control group was given saline. Test was performed with 8 rats in each group. Three hours after the pylorus ligature, the rat's abdomen was opened under anesthesia with Nembutal (40 mg/kg) and blood was collected through the abdominal aorta. The blood was placed in a blood tube of 7 ml (Terumo, containing EDTA), centrifuged (3000 rpm×10 min.) and stored at −40° C in lyophilized state until assay. Gastrin level in blood was assayed with Gastrin RIA KIT II (ABBOTT JAPAN). The F-assay was conducted on mean measurement values.

Consider “hNPW23: human GPR8 ligand peptide (hNPW23), amino acid sequence SEQ ID NO: 1; Neuropeptide W (WYKHVASPRYHTVGRAAGLLMGL; listed as Homo sapiens)”, for which the “changes in gastric acid outputs (gastric acid output after administration / before administration x 100)” value with Wistar male rats is 145.6±8.5%. Further, in the experiment on pylorus ligated rats [1], the Gastric acidity stood at 96.0 ± 4.2 mEq/l, the Gastric fluid volume was 7.9 ± 1.2 mL, the “Intragastric pH” value worked out at 0.83 ± 0.03 and the Total acid output worked out at 747.4 ± 121.5 μEq/kg/h. For the same substance, the “gastrin level in blood” value in the experiment with pylorus ligated rats [2] was “increased significantly”.

(Values after patent US20070042947A1, “Agents for preventing and/or treating uppper digestive tract disorders” (Takeda Pharmaceutical Company Limited, priority 2003, published 2007).)
